Data: the NIST ThermoML archive (doi:10.1007/s10765-008-0503-0)

Conditions: Liquid; for viscosity: Vibrating wire viscometry; for mass density: vibrating wire

COCCOC [1,2-dimethoxyethane]
Conditions	mass density [kg/m3]	viscosity [mPa·s]
243.15 K, 100 kPa	919.667	0.8856
243.15 K, 4540 kPa	923.045	0.9166
243.15 K, 9560 kPa	926.586	0.9502
243.15 K, 14590 kPa	928.901	0.9855
243.15 K, 19470 kPa	931.879	1.017
253.15 K, 100 kPa	909.614	0.7464
253.15 K, 4550 kPa	912.595	0.7729
253.15 K, 9550 kPa	915.73	0.7995
253.15 K, 14450 kPa	917.844	0.8296
253.15 K, 19430 kPa	921.699	0.858
263.15 K, 100 kPa	899.206	0.642
263.15 K, 4560 kPa	901.757	0.6618
263.15 K, 9590 kPa	904.482	0.6849
263.15 K, 14590 kPa	908.179	0.7095
263.15 K, 19460 kPa	911.986	0.7337
273.15 K, 100 kPa	887.607	0.5585
273.15 K, 4560 kPa	890.738	0.5759
273.15 K, 9590 kPa	894.412	0.5961
273.15 K, 14550 kPa	898.792	0.6173
273.15 K, 19480 kPa	903.248	0.6392
283.15 K, 100 kPa	876.889	0.4904
283.15 K, 4550 kPa	880.455	0.5056
283.15 K, 9570 kPa	884.621	0.525
283.15 K, 14460 kPa	889.18	0.5458
283.15 K, 19450 kPa	892.89	0.5619
293.15 K, 100 kPa	866.528	0.4341
293.15 K, 4530 kPa	869.991	0.4492
293.15 K, 9560 kPa	875.037	0.4673
293.15 K, 14460 kPa	879.707	0.485
293.15 K, 19450 kPa	883.646	0.5011
303.15 K, 100 kPa	855.111	0.3896
303.15 K, 4540 kPa	859.667	0.4031
303.15 K, 9500 kPa	865.15	0.4197
303.15 K, 14440 kPa	869.454	0.4334
303.15 K, 19440 kPa	873.398	0.4494
313.15 K, 100 kPa	843.765	0.3512
313.15 K, 4540 kPa	848.633	0.3641
313.15 K, 9500 kPa	854.082	0.3784
313.15 K, 14440 kPa	858.578	0.3922
313.15 K, 19420 kPa	863.033	0.4055
323.15 K, 100 kPa	832.929	0.3189
323.15 K, 4560 kPa	838.334	0.3303
323.15 K, 9530 kPa	843.798	0.3433
323.15 K, 14450 kPa	848.464	0.3562
323.15 K, 19460 kPa	852.959	0.3693
333.15 K, 100 kPa	822.133	0.2903
333.15 K, 4550 kPa	827.195	0.3018
333.15 K, 9570 kPa	833.307	0.3129
333.15 K, 14460 kPa	837.525	0.3256
333.15 K, 19430 kPa	842.805	0.3372
343.15 K, 100 kPa	809.48	0.2653
343.15 K, 4540 kPa	815.487	0.2754
343.15 K, 9560 kPa	821.858	0.2868
343.15 K, 14440 kPa	827.359	0.2985
343.15 K, 19420 kPa	832.794	0.3093
353.15 K, 360 kPa	798.071	0.2437
353.15 K, 4560 kPa	803.982	0.2539
353.15 K, 9570 kPa	810.723	0.2642
353.15 K, 14440 kPa	817.205	0.2754
353.15 K, 19420 kPa	822.843	0.2858
363.15 K, 160 kPa	785.42	0.2233
363.15 K, 4560 kPa	792.463	0.233
363.15 K, 9570 kPa	799.914	0.2438
363.15 K, 14440 kPa	806.21	0.2557
363.15 K, 19420 kPa	812.462	0.2641
373.15 K, 200 kPa	772.627	0.2059
373.15 K, 4560 kPa	780.565	0.2157
373.15 K, 9580 kPa	788.637	0.2263
373.15 K, 14440 kPa	795.752	0.2355
373.15 K, 19420 kPa	802.7	0.2457

COCOC [dimethoxymethane]
Conditions	mass density [kg/m3]	viscosity [mPa·s]
243.15 K, 100 kPa	917.773	0.6298
243.15 K, 4400 kPa	921.19	0.651
243.15 K, 9420 kPa	924.889	0.6752
243.15 K, 14450 kPa	928.455	0.7003
243.15 K, 19440 kPa	931.885	0.7258
253.15 K, 100 kPa	905.693	0.5389
253.15 K, 4420 kPa	909.439	0.556
253.15 K, 9410 kPa	913.399	0.5769
253.15 K, 14450 kPa	917.473	0.5975
253.15 K, 19440 kPa	921.171	0.6191
263.15 K, 100 kPa	893.705	0.4697
263.15 K, 4440 kPa	897.611	0.4857
263.15 K, 9440 kPa	901.958	0.5039
263.15 K, 14470 kPa	906.179	0.5215
263.15 K, 19470 kPa	910.144	0.5406
273.15 K, 100 kPa	881.433	0.4145
273.15 K, 4440 kPa	885.755	0.4285
273.15 K, 9440 kPa	890.38	0.4446
273.15 K, 14480 kPa	894.826	0.4615
273.15 K, 19540 kPa	899.081	0.4783
283.15 K, 100 kPa	869.282	0.3685
283.15 K, 4450 kPa	873.902	0.3818
283.15 K, 9430 kPa	878.977	0.3964
283.15 K, 14490 kPa	883.736	0.4114
283.15 K, 19550 kPa	888.33	0.4265
293.15 K, 100 kPa	857.043	0.3303
293.15 K, 4410 kPa	862.006	0.342
293.15 K, 9460 kPa	867.484	0.3559
293.15 K, 14490 kPa	872.625	0.3692
293.15 K, 19550 kPa	877.53	0.3832
303.15 K, 100 kPa	844.252	0.2963
303.15 K, 4450 kPa	849.702	0.3076
303.15 K, 9450 kPa	855.591	0.3199
303.15 K, 14490 kPa	861.24	0.3323
303.15 K, 19550 kPa	866.565	0.345
313.15 K, 160 kPa	831.685	0.2682
313.15 K, 4440 kPa	837.579	0.2785
313.15 K, 9420 kPa	843.933	0.2905
313.15 K, 14450 kPa	849.923	0.3022
313.15 K, 19440 kPa	855.5	0.3137
323.15 K, 190 kPa	818.682	0.2436
323.15 K, 4390 kPa	824.99	0.2532
323.15 K, 9420 kPa	832.095	0.2644
323.15 K, 14460 kPa	838.549	0.2758
323.15 K, 19490 kPa	844.585	0.2866
333.15 K, 210 kPa	805.334	0.2202
333.15 K, 4390 kPa	812.279	0.229
333.15 K, 9410 kPa	819.852	0.2401
333.15 K, 14450 kPa	826.872	0.2504
333.15 K, 19450 kPa	833.322	0.261
343.15 K, 280 kPa	791.705	0.2009
343.15 K, 4430 kPa	799.263	0.2096
343.15 K, 9430 kPa	807.432	0.2203
343.15 K, 14460 kPa	815.084	0.2301
343.15 K, 19460 kPa	822.037	0.24
353.15 K, 360 kPa	777.688	0.1837
353.15 K, 4370 kPa	785.794	0.1922
353.15 K, 9400 kPa	794.895	0.2024
353.15 K, 14450 kPa	803.147	0.2123
353.15 K, 19430 kPa	810.634	0.2217
363.15 K, 430 kPa	763.12	0.1688
363.15 K, 4400 kPa	772.066	0.1767
363.15 K, 9410 kPa	782.127	0.1868
363.15 K, 14450 kPa	791.118	0.1963
363.15 K, 19460 kPa	799.153	0.2059
373.15 K, 550 kPa	748.032	0.1551
373.15 K, 4370 kPa	757.736	0.1628
373.15 K, 9400 kPa	768.901	0.1728
373.15 K, 14450 kPa	778.77	0.1822
373.15 K, 19480 kPa	787.494	0.1914
